The source made the active and inactive calls.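 The calls were made as follows: active = compounds giving half or more protection of infected cells from virus-caused growth loss, again on retest; inactive = the rest.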 Where a SMILES comes first, the peptide text is derived from it. The star is where a group is joined. Fmoc = O=C(OCC1c2ccccc2-c2ccccc21)*; Boc = CC(C)(C)OC(=O)*
System: CEM cells HIV-1 protection, formazan growth assay
Assay: NCI AIDS Antiviral Assay
Settings: for IC50: measured here: growth of uninfected CEM cells
Summary of the method: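 Human CEM cells, uninfected and HIV-1-infected, received five drug concentrations, and growth was read by soluble formazan assay. Compounds giving at least 50% protection were retested; reproducible 100% protection defined confirmed active.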

Compound | EC50 [µM] | IC50 [µM] | outcome
Cc1ccccc1Cn1nc2ccccc2cc1=O | > 380 | > 380 | –
O=C1CC(c2ccco2)C2(C(=O)CCCC2=O)C(c2ccco2)C1 (centres undefined) | > 100 | > 100 | –
CCOC(=O)CN1CCC(C(O)c2cc3ccccc3[nH]2)CC1 (centres undefined) | > 537 | 525 | –
CC(=O)c1cccc(NC(=O)C(=O)C(C(=O)NN)c2ccccc2)c1 (centres undefined) | > 55 | > 55 | –
NC(=O)n1cnc(N)n1 | > 200 | > 200 | –
O=S(=O)(Sc1ccccc1)c1ccccc1 | > 81.3 | 13.8 | –
O=[N+]([O-])c1cc(-c2nnc(C34CC5CC(CC(C5)C3)C4)o2)cc([N+](=O)[O-])c1 | > 200 | > 200 | –
ON=C(C1CC1)C1CC1 | > 200 | > 200 | –
Cc1ccc(S(=O)(=O)N2CCN3C(=O)c4ccccc4C32c2ccc(F)cc2)cc1 (centres undefined) | > 200 | 31.6 | –
CC(C)(C)OC(=O)NCCCCC(NC(=O)OCC1c2ccccc2-c2ccccc21)C(=O)N1CCCC1C(=O)NCC(N)=O (stereo not drawn) (Fmoc-Lys(Boc)-Pro-Gly-NH2; configuration not given here) | 69.2 | 91.2 | –
C=C[C@]1(C)CC(=O)C(C(C)C=O)[C@]12C(=O)Oc1cccc(C)c1C2=O (some centres undefined) | > 200 | 13.5 | –
CCN(CC)CCN(C)CC(C)(C)C(=O)/C=C/c1ccccc1 | – | – | inactive
CCCN(C)C(=O)COc1cc2c(O)c3c(O)c(C)c4c(c13)C(=O)C(C)(O/C=C/C(OC)C(C)C(OC(C)=O)C(C)C(O)C(C)C(O)C(C)/C=C/C=C(\C)C(=O)N2)O4 (centres undefined) | > 200 | 18.6 | –
COc1cc(C2c3cc4c(c(O)c3C(=O)C3CCC(=O)N32)OCO4)cc(OC)c1OC (centres undefined) | > 200 | 20.9 | –
COc1ccccc1-n1cnc2c1NC(C)(C)N=C2C(N)=O | > 200 | > 200 | –
C=CC(OCC)(OCC)OCC | > 1450 | > 1450 | –
O=C1C(C(O)(C(F)(F)Cl)C(F)(F)Cl)CCCC1C(O)(C(F)(F)Cl)C(F)(F)Cl (centres undefined) | > 200 | 10 | –
O=c1ccn(C2OC(COC3CCCCO3)C(OC3CCCCO3)C2OC2CCCCO2)c(=O)n1-c1ccccc1 (centres undefined) | > 200 | > 200 | –
CCC(=O)c1ccc2[nH]c3c(C)c4c(=O)cc(C)[nH]c4c(C)c3c2c1 | > 100 | > 100 | –
COC(=O)C1CCCC2(C1)OCCO2 (centres undefined) | > 251 | > 251 | –
COC(OC)/C(C)=N/NC1=Nc2ccc(Cl)cc2C(c2ccccc2Cl)=NC1 | > 12.3 | > 12.3 | –

Compound | EC50 [µM] | IC50 [µM] | outcome
Cc1cc(O)c2c(c1)OC1(C)CCC3C(C)(C)CCCC34COC2C14 (centres undefined) | > 55 | 1.58 | –
C=C(C(=C)P(=S)(c1ccccc1)c1ccccc1)P(=S)(c1ccccc1)c1ccccc1 | > 26.9 | > 26.9 | –
COC(=O)C1(Cc2ccc3c(c2)CCC3)Cc2ccc3c(c2C1O)CCC3 (centres undefined) | > 200 | 12.3 | –
O=C1COC(c2ccccc2O)=NN1Cc1ccccc1 | > 49 | > 49 | –
CC1C(c2ccccc2)NC(c2ccccc2)CC1(N)C#N (centres undefined) | > 123 | > 123 | –
O=S1(=O)CSc2ccc3ccccc3c2-c2c1ccc1ccccc21 | > 27.5 | > 27.5 | –
Cc1ccc(S(=O)(=O)NC(=O)Nc2nc(Cl)cc(Cl)n2)cc1 | > 100 | 87.1 | –
Cc1cc2c(=O)c(C)n[nH]c2c(C#N)c1C | > 1170 | 178 | –
N#CN=C(N)NC(=O)/C=C/C=C/c1ccc(Cl)cc1 | – | – | inactive
CC(=O)c1sc2c(c1OC(=O)c1cccs1)c(=O)n(-c1ccccc1)c(=S)n2-c1ccccc1 | > 200 | 3.8 | –
C/C=C1\CN(C)C[C@H]2Cc3c(n(OC)c4ccccc34)C(=O)C[C@@H]12 | > 24 | > 24 | –
C=C(C)[C@@H]1CC[C@@H](C)C[C@H]1OC(C)=O | > 200 | > 200 | –
Oc1ccc(O)c(Sc2nnc(CCCCCCCCc3nnc(Sc4cc(O)ccc4O)o3)o2)c1 | – | – | inactive
Cc1ccc(/C=c2\c(=O)[nH]c3nc4ccccc4c(=O)n23)cc1 | > 200 | 22.4 | –
CC(C)=CCS(=O)c1ccccc1NC1=CC(=O)CC(C)(C)C1 (centres undefined) | – | – | inactive
Cc1ccccc1C(C#N)/C(=N/NC(N)=S)C(=O)Nc1c(C)cccc1C (centres undefined) | > 245 | 224 | –
Cc1cc(C)n(CCNCCn2nc(C)cc2C)n1 | – | – | inactive
Cn1c(=O)c2nc3sc4c(n3c2n(C)c1=O)C(=O)c1ccccc1C4=O | > 14.1 | > 14.1 | –
CCCCCCNCCCNc1c2ccccc2nc2cccc([N+](=O)[O-])c12 | > 2 | 0.138 | –
CC(C)(C)[Si](C)(C)OCC#C[C@@]1(O)CCCCC1CC(Sc1ccccc1)Sc1ccccc1 (some centres undefined) | > 200 | 12.6 | –
CC1(C)OC2C(O1)[C@H]1OC(C(Cl)(Cl)Cl)=N[C@H]1C(I)[C@H]2N1C(=O)c2ccccc2C1=O (some centres undefined) | > 200 | 110 | –

— PubChem BioAssay AID179 (DTP/NCI, 2004)
